How the values were obtained:
adult rats [1] = experiment: anti-inflammatory action, carragenin oedema test in rats; format: in vivo; conditions: for ED50: Rattus norvegicus, read-out: anti-inflammatory action rats ED50, carrageenin oedema
Source text: (§1) The anti-inflammatory action has been studied in adult rats by using the carragenin oedema test (Proc. Soc. exp. Biol. Med. 1962, 111 : 544) and the granuloma from an extraneous substance (J. Amer. Pharm. Ass., Sci. Ed. 1957, 46 : 515).
(§2) Whenever possible the ED50 values have been calculated.

LD50 mice = conditions: mouse, in vivo
guinea pigs = experiment: anti-cough action in guinea pigs made to inhale 4% ammonia; format: in vivo; conditions: intraperitoneal
Source text: (§3) The analgesic action has been assessed in rats (Arch. int. Pharmacodyn. 1957, 111 : 409) and in mice (Boll. Chim. Farm. 1968, 107 : 29), the antipyretic action in rats (J. Pharmacol. exp. Ther. 1963, 141 : 369); and the anti-cough action in guinea pigs made to inhale 4% ammonia.
as §2

adult rats [2] = experiment: anti-inflammatory action, granuloma from an extraneous substance in rats; format: in vivo; conditions: Rattus norvegicus, 168 h; oral × 7 days
Source text: as §1, §2

mice [3] = experiment: analgesic action, tail clip, mice; format: in vivo; conditions: oral
Source text: as §3, §2

rats [4] = experiment: antipyretic action in rats; format: in vivo; conditions: oral
Source text: as §3, §2

rats [5] = experiment: analgesic action, Randall Selitto, rats; format: in vivo; conditions: oral; for ED50: Rattus norvegicus
Source text: as §3, §2

rats [6] = experiment: anti-ulcer action in rats kept without food for 24 hours and motionless for 4 hours; format: in vivo; conditions: 10 mg/kg intraperitoneal
Experimental: The anti-ulcer property has been studied in rats kept without food for 24 hours and motionless for 4 hours (Therapie 1960, 15 : 1096).

LD50 rats = format: in vivo; conditions: rat, in vivo
mice [7] = experiment: analgesic action, stretching acetic acid, mice; format: in vivo; conditions: oral; for ED50: Mus musculus
Source text: as §3, §2

rats [8] = experiment: LD50 rats; format: in vivo; conditions: oral
[9] = intraperitoneal, 200 mg/kg maximum dose

| SMILES | ED50 (adult rats [1]; ip, intraperitoneal) | ED50 (adult rats [1]; oral) | LD50 (LD50 mice; ip, intraperitoneal) | LD50 (LD50 mice; oral) | ED50 (adult rats [2]) | anti-ulcer action, protected rats in % (rats [6]) | anti-ulcer action, reduction in number of ulcers in % (rats [6]) | LD50 (LD50 rats; ip, intraperitoneal) | LD50 (LD50 rats; po) | ED50 (mice [7]) | ED50 (rats [5]) | carrageenin oedema, effect at maximum dose administered (adult rats [1]; [9]) | stretching acetic acid, effect at maximum dose administered (mice [7]; 100 mg/kg maximum dose) | anti-coughing action, effect at maximum dose administered (guinea pigs; 200 mg/kg maximum dose) | tail clip, effect at maximum dose administered (mice [3]; 200 mg/kg maximum dose) | further results |
| --- | --- | --- | --- | --- | --- | --- | --- | --- | --- | --- | --- | --- | --- | --- | --- | --- |
| Nc1nc(-c2ccc(Cl)cc2)c(CC(=O)O)s1 [LR 331, (2-amino-4-p-chlorophenyl-thiazol-5-yl)-acetic acid] | 140 mg/kg | 300 mg/kg | 800 mg/kg | > 5000 mg/kg | 300 mg/kg | 30% | 52% | 840 mg/kg | > 1000 mg/kg | 132 mg/kg |  |  |  |  |  | anti-coughing action, effect at maximum dose administered (guinea pigs; 50 mg/kg maximum dose): 17%; tail clip, effect at maximum dose administered (mice [3]; 175 mg/kg maximum dose): .phi.; anti-pyretic action, effect at maximum dose administered (rats [4]; 400 mg/kg maximum dose): .phi.; Randall Selitto, effect at maximum dose administered (rats [5]; 175 mg/kg maximum dose): 15% |
| CCN(CC)c1nc(-c2ccc(Cl)cc2)c(CC(=O)O)s1 [LR 407, (2-n,n-diethylamino-4-p-chlorophenyl-thiazol-5-yl)-acetic acid] | 60 mg/kg | 120 mg/kg | 400 mg/kg | 1260 mg/kg | 170 mg/kg |  | 23% | 385 mg/kg | > 1500 mg/kg | 26 mg/kg | > 400 mg/kg |  |  |  |  | ED50 (guinea pigs; Cavia porcellus, ip, read-out: anti-coughing action guinea pigs ED50): 34 mg/kg; ED50 (mice [3]; Mus musculus): 48 mg/kg; ED50 (rats [4]; Rattus norvegicus, read-out: anti-pyretic action rats ED50): 73 mg/kg |
| O=C(O)Cc1sc(Nc2c(Cl)cccc2Cl)nc1-c1ccccc1 [LR 396, [2-n-(2', 6'-dichlorophenyl)-amino-4-phenyl-thiazol-5-yl]-acetic acid] |  |  | > 1000 mg/kg |  |  | 40% | 45% |  |  |  |  | .phi. | 26% |  |  |  |
| CCN(CC)CCNC(=O)Cc1sc(N)nc1-c1ccc(Cl)cc1 [LR 450, (2-amino-4-p-chlorophenyl-thiazol-5-yl)-N-(N',N' diethylaminoethyl)-acetamide] |  |  | 43 mg/kg | 238 mg/kg | 100 mg/kg | 65% | 69% | 47 mg/kg | 915 mg/kg |  |  |  | 27% |  |  | carrageenin oedema, effect at maximum dose administered (adult rats [1]; intraperitoneal, 6 mg/kg maximum dose): 36%; carrageenin oedema, effect at maximum dose administered (adult rats [1]; oral, 100 mg/kg maximum dose): 35%; anti-coughing action, effect at maximum dose administered (guinea pigs; 12 mg/kg maximum dose): .phi.; tail clip, effect at maximum dose administered (mice [3]; 50 mg/kg maximum dose): .phi.; anti-pyretic action, effect at maximum dose administered (rats [4]; 100 mg/kg maximum dose): 38%; Randall Selitto, effect at maximum dose administered (rats [5]; 100 mg/kg maximum dose): 18% |
| O=C(O)Cc1sc(NC(=O)Nc2ccccc2)nc1-c1ccc(Cl)cc1 [LR 364, [2-(phenylamino-carbonylamino)-4-p-chlorophenyl-thiazol-5-yl]-acetic acid] |  |  | > 1000 mg/kg |  |  | 30% | 59% |  |  |  |  | .phi. |  | .phi. | .phi. | stretching acetic acid, effect at maximum dose administered (mice [7]; 200 mg/kg maximum dose): 31% |
| O=C(O)Cc1sc(Nc2ccccc2)nc1-c1ccc(Cl)cc1 [LR 330, (2-phenylamino-4-p-chlorophenyl-thiazol-5-yl)-acetic acid] | 75 mg/kg | 400 mg/kg | > 1000 mg/kg | > 3000 mg/kg | 400 mg/kg |  |  | > 1000 mg/kg | > 2000 mg/kg | 75 mg/kg | 200 mg/kg |  |  | .phi. | .phi. | anti-pyretic action, effect at maximum dose administered (rats [4]; 200 mg/kg maximum dose): .phi.; LD50 (rats [8]): > 3000 mg/kg |

Source: patent US3933838A, “5-Substituted 2-amino-4-arylthiazoles” (Instituto Luso Farmaco d'Italia S.r.l., priority 1972, dated 1976)
